Drawing on PubChem BioAssay (NCI), this text covers GI50 and TGI for 7 molecules.

Among the test systems are A549 NSCLC; HCT-116 colon; HCT-15 colon; HL-60(TB) leukemia; MDA-MB-435; NCI-H460 lung; NCI/ADR-RES ovarian; OVCAR-3 ovarian; OVCAR-4 ovarian; SNB-75 CNS.
Holding throughout (assay): NCI-60 cell line screen, 48 h

“And” between values parts separate entries of the source, which are not always exact repeats. Equal values may be shown once.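 Protocol summary: plate cells (96-well), add compound at 5 concentrations, incubate 48 h, interpolate endpoints linearly. Here, GI50 denotes the concentration required for 50% inhibition of growth. TGI marks complete inhibition of growth.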

`COc1ccc(/C=C/C(=O)c2ccc(Nc3ncnc4ccccc34)cc2)cc1OC`: the GI50 was 3.66 µM in the assay with A549 NSCLC; 0.547 µM with HCT-116 colon; 8.63 µM in the assay with HCT-15 colon; 20.7 µM in the assay with HL-60(TB) leukemia; 2.93 µM with MDA-MB-435; 13 µM in the assay on NCI-H460 lung. The GI50 in the assay on NCI/ADR-RES ovarian was 3.82 µM; with OVCAR-3 ovarian it was 5.1 µM; with OVCAR-4 ovarian, 3.26 µM; in the assay on SNB-75 CNS it was 5.19 µM. Further, the TGI with A549 NSCLC was greater than 100 µM; in the assay on HCT-116 colon, 16.8 µM; in the assay with HCT-15 colon, greater than 100 µM; in the assay with HL-60(TB) leukemia, greater than 100 µM; in the assay with MDA-MB-435, greater than 100 µM; with NCI-H460 lung it was greater than 100 µM. In addition, the TGI in the assay on NCI/ADR-RES ovarian is greater than 100 µM; with OVCAR-3 ovarian, greater than 100 µM; in the assay with OVCAR-4 ovarian it was 27 µM; with SNB-75 CNS it was 48.3 µM.
Consider `O=C1C(NCCO)=C(N2CC2)C(=O)C(NCCO)=C1N1CC1`, for which the TGI was greater than 100 µM with A549 NSCLC; 67.1 µM with HCT-116 colon; greater than 72.5 µM with HCT-15 colon; 57.6 µM in the assay on HL-60(TB) leukemia; greater than 100 µM in the assay with MDA-MB-435; greater than 66.2 µM in the assay on NCI-H460 lung. Besides, the TGI is greater than 100 µM in the assay on NCI/ADR-RES ovarian, greater than 75.8 µM in the assay with OVCAR-3 ovarian, greater than 70.8 µM in the assay on OVCAR-4 ovarian and greater than 100 µM in the assay on SNB-75 CNS.
With `Cc1sc2ncnc(Sc3nc4ccccc4[nH]3)c2c1C`, the GI50 in the assay on A549 NSCLC was 21.5 µM; with HCT-116 colon, 24 µM; in the assay on HCT-15 colon, 28.2 µM; with HL-60(TB) leukemia, 22.7 µM; with MDA-MB-435 it was 26.3 µM; in the assay with NCI-H460 lung it was 27.6 µM. Also, the GI50 in the assay with NCI/ADR-RES ovarian is 29.5 µM; in the assay on OVCAR-3 ovarian it was 23.3 µM; in the assay with OVCAR-4 ovarian, 20.6 µM; in the assay with SNB-75 CNS, 1.52 µM. The TGI with A549 NSCLC was 73 µM; in the assay on HCT-116 colon, greater than 100 µM; in the assay on HCT-15 colon, greater than 100 µM; in the assay on HL-60(TB) leukemia it was 59.4 µM; in the assay on MDA-MB-435 it was greater than 100 µM; with NCI-H460 lung it was greater than 100 µM. Moreover, the TGI with NCI/ADR-RES ovarian is greater than 100 µM; in the assay with OVCAR-3 ovarian it was 60 µM; with OVCAR-4 ovarian, 66.9 µM; with SNB-75 CNS it was 27 µM.
For the molecule `OCCNc1nc(NCCO)nc(Nc2ccc(C3=NN(c4cc(Cl)cc(Cl)c4)C(c4ccc(Cl)cc4)C3)cc2)n1` (stereo not given), the GI50 in the assay on A549 NSCLC is 1.96 µM; with HCT-116 colon, 1.59 µM; in the assay with HCT-15 colon it was 1.48 µM; with HL-60(TB) leukemia it was 1.86 µM; in the assay on MDA-MB-435 it was 1.65 µM; in the assay on NCI-H460 lung it was 1.89 µM. The GI50 with NCI/ADR-RES ovarian is 2.6 µM; in the assay with OVCAR-3 ovarian it was 1.75 µM; in the assay on OVCAR-4 ovarian it was 2 µM; in the assay on SNB-75 CNS it was 1.51 µM. Also, the TGI worked out at 4.45 µM in the assay with A549 NSCLC; 3.05 µM with HCT-116 colon; 2.8 µM with HCT-15 colon; 3.85 µM in the assay on HL-60(TB) leukemia; 3.11 µM in the assay on MDA-MB-435; 3.66 µM with NCI-H460 lung. The TGI in the assay on NCI/ADR-RES ovarian is 7.08 µM; with OVCAR-3 ovarian, 3.19 µM; with OVCAR-4 ovarian, 5.02 µM; with SNB-75 CNS it was 3.06 µM.
With `Cn1cnc2c(F)c(Nc3ccc(Br)cc3Cl)c(C(=O)NOCCO)cc21`, the GI50 in the assay on A549 NSCLC was 6.85 µM and 10.8 µM; in the assay on HCT-116 colon it was 0.648 µM and 1.07 µM; in the assay on HCT-15 colon, > 10 µM and 40.5 µM; in the assay with HL-60(TB) leukemia it was 0.0218 µM; with MDA-MB-435, 0.0709 µM and 0.0294 µM; in the assay with NCI-H460 lung, > 10 µM and 32.3 µM. The GI50 in the assay with NCI/ADR-RES ovarian is greater than 100 µM; in the assay on OVCAR-3 ovarian, > 10 µM and 62.9 µM; in the assay on OVCAR-4 ovarian it was > 10 µM and 22.7 µM; in the assay with SNB-75 CNS, > 10 µM and 60.4 µM. Moreover, the TGI is greater than 100 µM with A549 NSCLC; greater than 100 µM in the assay with HCT-116 colon; greater than 100 µM with HCT-15 colon; > 10 µM and 5.35 µM with HL-60(TB) leukemia; greater than 100 µM with MDA-MB-435; greater than 100 µM in the assay on NCI-H460 lung. Also, the TGI with NCI/ADR-RES ovarian, in the assay on OVCAR-3 ovarian, with OVCAR-4 ovarian and with SNB-75 CNS was greater than 100 µM in each case.
As to `CN(C)c1cccc2[nH]c(-c3[nH]ncc3Nc3ccnc(N)n3)nc12`, the GI50 with A549 NSCLC was 0.0331 µM; in the assay on HCT-116 colon, less than 0.01 µM; in the assay on HCT-15 colon it was 0.0144 µM; with HL-60(TB) leukemia, less than 0.0141 µM; in the assay with MDA-MB-435, 0.0237 µM; in the assay on NCI-H460 lung, 0.054 µM. The GI50 in the assay with NCI/ADR-RES ovarian was 0.0328 µM; in the assay with OVCAR-3 ovarian, less than 0.0121 µM; in the assay on OVCAR-4 ovarian it was 0.0349 µM; in the assay on SNB-75 CNS, less than 0.0108 µM. For the same molecule, the TGI with A549 NSCLC worked out at 1.15 µM; in the assay with HCT-116 colon, 1.09 µM; with HCT-15 colon it was 1.03 µM; with HL-60(TB) leukemia, 0.0666 µM; with MDA-MB-435, 0.719 µM; in the assay with NCI-H460 lung, 1.05 µM. In addition, the TGI in the assay on NCI/ADR-RES ovarian came out at 1.5 µM; in the assay on OVCAR-3 ovarian, 1.09 µM; in the assay on OVCAR-4 ovarian, 0.706 µM; in the assay on SNB-75 CNS it was 0.0302 µM.
Take `COc1ccc(NC2=C(Sc3nc(C)cc(C)n3)C(=O)N(Cc3ccccc3)C2=O)cc1Cl`: the GI50 with A549 NSCLC was greater than 160 µM; with HCT-116 colon, 39 µM; in the assay with HCT-15 colon, greater than 160 µM; with HL-60(TB) leukemia, 140 µM; in the assay with MDA-MB-435 it was 158 µM; with NCI-H460 lung, greater than 160 µM. For the same molecule, the GI50 is greater than 160 µM with NCI/ADR-RES ovarian, greater than 160 µM in the assay with OVCAR-3 ovarian, 107 µM in the assay with OVCAR-4 ovarian and 40.8 µM in the assay with SNB-75 CNS. For the same molecule, the TGI with A549 NSCLC, in the assay with HCT-116 colon, with HCT-15 colon, in the assay on HL-60(TB) leukemia, with MDA-MB-435 and in the assay with NCI-H460 lung was greater than 160 µM throughout. The TGI with NCI/ADR-RES ovarian, in the assay with OVCAR-3 ovarian, in the assay with OVCAR-4 ovarian and with SNB-75 CNS was greater than 160 µM in each case.
